According to patent US20050267156A1, “Broadspectrum 2-amino-benzothiazole sulfonamide hiv protease inhibitors” (Tibotec Pharmaceuticals Ltd., priority 2002, published 2005):
Like-named read-outs stand apart in the source and are kept apart here.

Key:
mock-infected MT4 cells = test: Toxicity on mock-infected cells (MTT); format: cell-based
HIV-1 strain LAI = test: Cellular anti-HIV assay (MT4/MTT), wild type; format: cell-based; details: wild type HIV-1 strain LAI, MT4 cells; for EC50: Human immunodeficiency virus 1, read-out: WT (pEC50) (converted)
mutant HIV strain A = test: microbe, parasite or virus in culture; format: cell-based; details: for fold resistance Strain A: FR=EC50 (mutant strain)/EC50 (HIV-1 strain LAI); for pEC50 Strain A: mutant HIV strain A, MT4 cells; for EC50: Human immunodeficiency virus 1, MT4, read-out: pEC50 Strain A, mutant HIV strain A, MT4 cells (converted)
mutant HIV strain B = test: microbe, parasite or virus in culture; format: cell-based; details: for fold resistance Strain B: FR=EC50 (mutant strain)/EC50 (HIV-1 strain LAI); for pEC50 Strain B: mutant HIV strain B, MT4 cells
mutant HIV strain C = test: microbe, parasite or virus in culture; format: cell-based; details: for fold resistance Strain C: FR=EC50 (mutant strain)/EC50 (HIV-1 strain LAI); for pEC50 Strain C: mutant HIV strain C, MT4 cells; for EC50: Human immunodeficiency virus 1, MT4, read-out: pEC50 Strain C, mutant HIV strain C, MT4 cells (converted)
mutant HIV strain F = test: microbe, parasite or virus in culture; format: cell-based; details: for fold resistance Strain F: FR=EC50 (mutant strain)/EC50 (HIV-1 strain LAI); for pEC50 Strain F: mutant HIV strain F, MT4 cells
mutant HIV strain D = test: microbe, parasite or virus in culture; format: cell-based; details: for fold resistance Strain D: FR=EC50 (mutant strain)/EC50 (HIV-1 strain LAI); for pEC50 Strain D: mutant HIV strain D, MT4 cells; for EC50: Human immunodeficiency virus 1, MT4, read-out: pEC50 Strain D, mutant HIV strain D, MT4 cells (converted)
mutant HIV strain E = test: microbe, parasite or virus in culture; format: cell-based; details: for fold resistance Strain E: FR=EC50 (mutant strain)/EC50 (HIV-1 strain LAI); for pEC50 Strain E: mutant HIV strain E, MT4 cells; for EC50: Human immunodeficiency virus 1, MT4, read-out: pEC50 Strain E, mutant HIV strain E, MT4 cells (converted)
[1] = Toxicity on mock-infected cells (MTT); format: cell-based; details: human
[2] = tested on: mutant HIV protease viruses; test: Panel of more than 20 mutant proteases; format: cell-based
Pharmacokinetics in rats = format: in vivo, Whistar rats; details: rat
Experimental: (§1) The pharmacokinetic properties of some compounds of formula (I) were tested on rats and dogs. The compounds were evaluated in Whistar rats, source Iffa Credo, weighing approximately 350 g. Before dosing the animals were fasted overnight (approximately 12 h fasting period). The compounds were dissolved in DMSO or PEG 400. The results represented in the table concern the results from the oral or intra-peritoneal dosing of the compounds. Blood was sampled at 30 min, 1 h, 2 h, 3 h, no pre-dose sample was taken. The amount of the compound in the biological sample was determined using LC-MS. In the table below “or” means oral dosing, “ip” means intraperitoneal dosing, “mpk” means mg per kilogram.

Pharmacokinetics in dogs = format: in vivo; details: or, dog
Experimental: as §1

[3] = ip, DMSO, results normalized to 10 mpk
[4] = or, PEG400, results normalized to 10 mpk

Compound | WT (pEC50) (HIV-1 strain LAI) | fold resistance Strain A (mutant HIV strain A) | pEC50 Strain A (mutant HIV strain A) | fold resistance Strain B (mutant HIV strain B) | pEC50 Strain B (mutant HIV strain B) | fold resistance Strain C (mutant HIV strain C) | pEC50 Strain C (mutant HIV strain C) | fold resistance Strain F (mutant HIV strain F) | pEC50 Strain F (mutant HIV strain F) | fold resistance Strain D (mutant HIV strain D) | pEC50 Strain D (mutant HIV strain D) | fold resistance Strain E (mutant HIV strain E) | pEC50 Strain E (mutant HIV strain E) | CC50 at 5 days [1] [nM] | EC50 (HIV-1 strain LAI) [nM] | EC50 (mutant HIV strain A) [nM] | EC50 (mutant HIV strain C) [nM] | EC50 (mutant HIV strain D) [nM] | EC50 (mutant HIV strain E) [nM] | Cmax (Pharmacokinetics in rats; [3]) [ng/mL] | further results
CC(C)CN(C[C@@H](O)[C@H](Cc1ccccc1)NC(=O)O[C@H]1CCOC1)S(=O)(=O)c1ccc2nc(N)sc2c1 [Compound 13, {(1S,2R)-3-[(2-amino-benzothiazole-6-sulfonyl)-isobutyl-amino]-1-benzyl-2-hydroxypropyl}-carbamic acid(S) (tetrahydro-furan-3-yl)ester] | 8.52 | 13.5 | 7.39 | 1.9 | 8.24 | 1.3 | 8.42 | 34.7 | 6.98 | 2.5 | 8.13 | 0.9 | 8.57 | – | – | – | – | – | – | – | Tox (pCC50) (mock-infected MT4 cells): <4
CC(C)CN(C[C@@H](O)[C@H](Cc1ccccc1)NC(=O)OC1COC2OCCC12)S(=O)(=O)c1ccc2nc(N)sc2c1 (stereo partly drawn) [Compound 1, {(1S,2R)-3-[(2-amino-benzothiazole-6-sulfonyl)-isobutyl-amino]-1-benzyl-2-hydroxypropyl}-carbamic acid hexahydro-furo[2,3-b]furan-3-yl ester] | – | 0.5 | – | 0.7 | – | 0.8 | – | – | – | 0.4 | – | 0.6 | – | 69200 | 5.5 | 2.95 | 4.17 | 2.24 | 3.09 | – | IC50 ([2]; Human immunodeficiency virus 1, read-out: pIC50 for the most resistant mutant (converted)): 7.59 nM; IC50 ([2]; Human immunodeficiency virus 1, read-out: pIC50 for the most sensitive mutant (converted)): 0.741 nM; EC50 (mutant HIV strain B; Human immunodeficiency virus 1, MT4, read-out: pEC50 Strain B, mutant HIV strain B, MT4 cells (converted)): 3.63 nM
CNc1nc2ccc(S(=O)(=O)N(CC(C)C)C[C@@H](O)[C@H](Cc3ccccc3)NC(=O)O[C@H]3CCOC3)cc2s1 [Compound 21, {(1S,2R)-1-benzyl-2-hydroxy-3-[isobutyl-(2-methylamino-benzothiazole-6-sulfonyl)-amino]-propyl}-carbamic acid(S)(tetrahydro-furan-3-yl)ester] | – | – | – | – | – | – | – | – | – | – | – | – | – | – | – | – | – | – | – | 1763 | Cmax (Pharmacokinetics in rats; or, DMSO, results normalized to 10 mpk): 1139 ng/mL; Cmax (Pharmacokinetics in rats; [4]): 1315 ng/mL; Cmax (Pharmacokinetics in dogs; PEG400 - 2 animals, results normalized to 10 mpk): 61 ng/mL; Cmax (Pharmacokinetics in dogs; PEG400 - 4 animals, results normalized to 10 mpk): 184 ng/mL
CNc1nc2ccc(S(=O)(=O)N(CC(C)C)C[C@@H](O)[C@H](Cc3ccccc3)NC(=O)OCc3cncs3)cc2s1 [Compound 18, {(1S,2R)-1-benzyl-2-hydroxy-3-[isobutyl-(2-methylamino-benzothiazole-6-sulfonyl)-amino]-propyl}-carbamic acid thiazol-5-ylmethyl ester] | – | – | – | – | 8.21 | – | – | – | – | – | – | – | – | 85100 | 1.91 | 30.9 | 7.41 | 21.4 | 9.12 | – | Cmax (Pharmacokinetics in rats; Whistar, blood, ip, 10 mpk, ip, DMSO, results normalized to 10 mpk, read-out: Cmax): 1140 ng/mL; Cmax (Pharmacokinetics in rats; Whistar, blood, po, 10 mpk, or, DMSO, results normalized to 10 mpk, read-out: Cmax): 396 ng/mL; Cmax (Pharmacokinetics in rats; Whistar, blood, po, 10 mpk, or, PEG400, results normalized to 10 mpk, read-out: Cmax): 668 ng/mL; Cmax (Pharmacokinetics in dogs; blood, po, 10 mpk, DMSO, results normalized to 10 mpk, read-out: Cmax): 15 ng/mL; Cmax (Pharmacokinetics in dogs; blood, po, 10 mpk, PEG400, results normalized to 10 mpk, read-out: Cmax): 42 ng/mL; EC50 (mutant HIV strain F; Human immunodeficiency virus 1, MT4, read-out: pEC50 Strain F, mutant HIV strain F, MT4 cells (converted)): 148 nM
{(1S,2R)-3-[(2-amino-benzothiazole-6-sulfonyl)-isobutyl-amino]-1-benzyl-2-hydroxypropyl}-carbamic acid(3R,3aS,6aR)-hexahydro-furo[2,3-b]furan-3-yl ester [Compound 2] | 8.18 | 0.3 | 8.68 | 0.4 | 8.59 | 0.4 | 8.54 | 0.5 | 8.45 | 0.3 | 8.69 | 0.5 | 8.50 | – | – | – | – | – | – | 427 | Cmax (Pharmacokinetics in rats; [4]): 52 ng/mL; Tox (pCC50) (mock-infected MT4 cells; mock-infected MT4 cells, pCC50): 4.07
